From patent US7560428B2, “Hair growth promoting oligopeptides” (Sumitomo Electric Industries, Ltd., priority 2004, dated 2009)
“Also recorded” adds a separate entry of the source. No end group written: not given here. *: point of attachment. KMUA = N-κ-maleimidoundecanoic acid-derived modifying group bound to a cysteine residue, O=C(O)CCCCCCCCCCN1C(=O)CC(*)C1=O; BMPA = N-β-maleimidopropionic acid-derived modifying group bound to a cysteine residue; Hexanoyl(6-maleimido) = O=C1C=CC(=O)N1CCCCCC(=O)*

Tested on: AHF (antigen recognized by the monoclonal antibody mAb27)
Test: Hair growth promoting activity in cultured mouse skin tissue: strength of the mAb27 reaction (AHF band) by Western blot
Type: cell-based, ICR baby mice
Details: test oligopeptide 20 μM, skin tissue cultured at 37° C. for 6 days, versus PBS control; FIGS. 4 and 5
From the text: The skin tissues of the upper jaw of ICR baby mice with an age of 12 days old were recovered under a stereoscopic microscope. The skin tissues were collected from both the left and right sides of the upper jaw, and the tissues were recovered from the total 5 mice. The skin sections recovered from the 5 mice were divided into the skin sections from the left side (used as a control) and those from the right side (used as a test oligopeptide). Thereafter, 5 skin sections were placed on a single nuclepore membrane (pore size: 8 μm; diameter: 13 mm). The skin sections were observed under a stereoscopic microscope, and the outside thereof was disposed on the front. 500 μl of Dulbecco's MEM/Ham F12 medium containing 1% BSA was added to 2 wells of a 24-well dish. Thereafter, a test oligopeptide solution (solvent: PBS) was added to one well to a final concentration of 20 μM, and only a solvent (PBS) as a control was added at the same amount to the other well. As test oligopeptides, unmodified oligopeptides and modified oligopeptides produced in (1) above were used.
Each of the membranes on which the skin tissues were placed was put on the aforementioned solution filled in the well, and it was then cultured at 37° C. for 6 days. From each membrane, 5 tissue sections were recovered in 100 μl of an SDS sample buffer (0.02 g/ml SDS, 0.2 g/ml glycerol, pH 6.8). The recovered sections were then dissolved therein using an ultrasonic crusher. The control was treated in the same manner. The solution obtained by the aforementioned treatment was electrophoresed (35 mA, 1.5 hours) by SDS-PAGE (acrylamide: 4% to 20%), and it was then transferred to a PVDF membrane. Thereafter, it was incubated in a Tris buffer solution (TBST) containing 5% skimmed milk for 1 hour. Thereafter, the resultant was allowed to react with mAb27 (10 μg/ml in TBST) obtained in Example 2 for 1 hour, and it was then sufficiently washed with TBS. Thereafter, peroxidase-labeled anti-rat IgG (Amersham) was 1,000 times diluted with TBST, and the diluted solution was used as a secondary antibody. The secondary antibody was allowed to react with the above resultant product, and the obtained reaction product was then sufficiently washed. Thereafter, the strength of the reaction of mAb27 was examined using an ECL kit (Amersham).
The term “AHF” shown in FIGS. 4 and 5 represents an antigen recognized by the monoclonal antibody mAb27 (specifically, a protein consisting of 1,439 amino acid residues shown in SEQ ID NO: 11).

Substance | hair growth activity (thickness of AHF band detected with mAb27)
Ser-Ile-Glu-Gln-Ser-Xaa-Ala-Gln-Glu (SIEQSC(Hexanoyl(6-maleimido))AQE) [SEQ ID NO: 9] | particularly strong hair growth activity
Ser-Ile-Glu-Gln-Ser-Xaa-Asp [BMPA] (SIEQSC(BMPA)D) | strong hair growth activity
Ser-Ile-Glu-Gln-Ser-Xaa-Asp [EMCA] (SIEQSC(Hexanoyl(6-maleimido))D) | strong hair growth activity; also recorded: particularly strong
Ser-Ile-Glu-Gln-Ser-Xaa-Asp [KMUA] (SIEQSC(KMUA)D) | strong hair growth activity
Ser-Ile-Glu-Gln-Ser-Xaa-Asp-Gln-Asp-Glu (SIEQSC(Hexanoyl(6-maleimido))DQDE) [SEQ ID NO: 8] | particularly strong hair growth activity
Ser-Ile-Glu-Gln-Ser-Xaa-Glu-Gln-Glu (SIEQSC(Hexanoyl(6-maleimido))EQE) [SEQ ID NO: 10] | strong hair growth activity
